No end group written: not given here.
What was measured:
Candida albicans = system: Candida albicans
Description: For example, in one embodiment, the H2 peptide was conjugated to Blue dye #1 as a reporter on the C-terminal end. The N-terminal end was conjugated to Affigel 10 beads (BioRad). The beads were exposed to an aliquot of overnight grown Candida albicans for a period of 24 hours at 37° C. A control set of beads was also exposed to culture medium. Blue dye released from the beads by the action of Candida albicans was collected on a membrane to produce a clear signal.
Food grade sensors can be used in consumer products. […] The resulting beads were incubated with growth medium (1:2 BHI/PBS) alone (control) and an overnight grow-up of Candida albicans for 24 hours at 37° C. […] The preferred ion exchange membranes to collect the free dye are SB6407 and Biodyne B (Pall Life Sciences, Ann Arbor, Mich. and positively charged PVDF (Millipore)). These membranes have strong positively-charged quaternary ammonium groups.
In one example, dye-conjugated Affigel 10 beads were exposed to Candida albicans supernatant (20 μl of 1:10 dilution of beads) or a medium control (1:2 BHI/PBS) for 24 hours. The color was collected with a positively charged membrane (SB6407) in with the bead reaction.

[1] = system: proteases produced by Trichomonas vaginalis; assay: High throughput screening of GFP-random peptide fusion library with Trichomonas vaginalis cell-free growth medium; assay type: biochemical; details: 4,900 clones screened, LYI entamoeba medium
Description: Peptide substrates for proteases produced by the vaginal pathogen Trichomonas vaginalis were also identified. This microbe was grown in LYI entamoeba medium overnight and the cell-free growth medium was used in the high throughput screening of 4,900 clones from a GFP-random peptide fusion library.
Peptides 39H9 and 42D3 were altered to remove the lysine residues prior to peptide synthesis. The peptides were conjugated to HRP and affigel 10 beads and produced a visible color signal in five minutes at 650 nm when an aliquot of the protease-treated product was incubated with tetramethyl benzidine.

C. albicans = assay: Identification of peptide targets for C. albicans; assay type: biochemical, Candida albicans
Description: Clones of green fluorescent protein (GFP) tagged conjugates were used to identify targets in a high throughput screen. Each clone contained a plasmid harboring a gene that contains a polyhistidine tag (6 his), 30 random nucleotides (corresponding to 10 random amino acids), and green fluorescent protein (GFP). On the day before a screen, 864 glowing clones are grown up overnight at 37° C. in deep well microtiter plates (1 ml/well). In the morning, the cultures can be induced with 1 mM IPTG for 1 hour, the cells can be centrifuged for five minutes, and then the media can be decanted. Lysozyme (2 mg/ml) can be added and the cells can be flash frozen 3 times. The samples can be treated with 100 ul/well of DNAse I at 37° C. for 30 minutes to reduce the viscosity by digesting the DNA. An aliquot of the sample can then be transferred to a microtiter filter plate containing 10 μl of nickel-NTA resin. The pipeting of the reagents (IPTG, lysozyme, DNAse I, and beads) can be performed with a Tecan Genesis RSP 100 Robot with Gemini version 4.0 software.
(§1) The plates can be filtered by centrifugation three times with PBS to remove unbound material and then the GFP-peptide-bound bead can be incubated with microbial extract for 20 min at 37° C. The sample can be filtered and the flow through fluorescence can be compared with the background from the prior wash. If the microbe has a protease that finds the ideal target, then the release of GFP fluorescence from the bead can be over 100 times greater than the background.
(SEQ ID NO: 8), the sequence QKTTIKKLKH (H2) (SEQ ID NO: 9), the sequence KPKAFLKVGN (R8) (SEQ ID NO: 6), the sequence TPIQIHTILH (SEQ ID NO: 10), the sequence […] (SEQ ID NO: 11), the sequence […] (SEQ ID NO: 12), and the sequence […] (SEQ ID NO: 13).

[2] = system: Lactobacillus sp. protease; assay: GFP-random amino acid sequence-polyhistidine peptide library screen, GFP-peptide released from beads by Lactobacillus supernatant; assay type: biochemical, Lactobacillus acidophilus; details: plate number 69, exposed to Lactobacillus, FIG. 9
Description: (§2) The samples were then incubated with beads that bind the epitope tag (e.g., 10 μl of NTA-resin to bind a polyhistidine tag or 10 μl of methotrexate agarose to bind the FolA tag). The sample was then placed into a microtiter filtration plate and washed three times to remove the unbound proteins. The fluorescent signal of the third wash was measured in a fluorescent microplate reader at an excitation of 355 nm and an emission of 510 nm (for GFP). Alternatively, the HRP activity can be measured in a microplate colorimeter at 405 nm with H2O2 and ABTS substrate. This background reading from the third rinse can later be subtracted from the signal of the released GFP (or HRP) peptides by extracellular bacterial proteases. […]
as §1
(§3) Fluorescence can be measured on a Fluoroskan II instrument with an excitation filter centered at 380 nm and emission filter centered at 538 nm. […]

HSV protein UL26 = HSV protein UL26 (Human herpesvirus 1, UniProt P10210); details: cited from earlier work
[3] = system: C. albicans clinical isolates; details: for reaction with ten clinical C. albicans isolates (released HRP): HRP-peptide-Affigel conjugate, cell-free growth medium, ten minutes, FIG. 24; for sensitivity: all ten clinical isolates
Description: For example, ten clinical C. albicans isolates kindly provided by Dr. Andrew Onderdonk (Brigham and Women's Hospital) were tested alongside a strain obtained from C. albicans ATCC. The yeast cells were grown in YCB-BSA (23.4 g yeast carbon base, 2 g yeast extract, 10 g dextrose, and 5 g of BSA per liter—adjusted to pH 5.0). An aliquot of the cell-free growth medium was mixed with an HRP-peptide-Affigel conjugate for ten minutes and the amount of released HRP was determined.

[4] = system: Gardnerella vaginalis, Lactobacillus acidophilus, and Escherichia coli; assay: HRP-peptide-Affigel conjugates: initial specificity study with other vaginal bacteria; assay type: biochemical
Gardnerella vaginalis = assay: GFP-random amino acid sequence-polyhistidine peptide library screen with Gardnerella extracts; assay type: biochemical; details: plate 76, FIG. 10
Description: as §2, §1, §3

HSV protein UL26, sequence (P10210 whole entry): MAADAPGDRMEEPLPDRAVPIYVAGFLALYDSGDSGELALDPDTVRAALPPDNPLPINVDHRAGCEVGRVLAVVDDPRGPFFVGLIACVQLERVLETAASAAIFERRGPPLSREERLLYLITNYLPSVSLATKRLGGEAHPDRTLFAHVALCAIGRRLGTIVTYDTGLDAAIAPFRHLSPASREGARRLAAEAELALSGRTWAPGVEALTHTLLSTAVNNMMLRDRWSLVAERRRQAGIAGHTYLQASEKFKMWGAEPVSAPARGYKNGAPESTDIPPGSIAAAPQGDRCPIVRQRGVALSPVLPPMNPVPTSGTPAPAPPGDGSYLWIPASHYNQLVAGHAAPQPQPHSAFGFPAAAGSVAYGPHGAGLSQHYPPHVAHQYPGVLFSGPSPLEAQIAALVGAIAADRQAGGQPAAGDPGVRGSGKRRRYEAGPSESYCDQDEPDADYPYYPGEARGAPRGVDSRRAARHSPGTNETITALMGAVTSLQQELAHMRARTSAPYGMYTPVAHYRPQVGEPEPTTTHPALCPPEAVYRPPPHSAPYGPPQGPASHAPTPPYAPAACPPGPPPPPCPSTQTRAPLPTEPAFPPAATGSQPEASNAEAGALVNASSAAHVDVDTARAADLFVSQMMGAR

Substance	identified as peptide detecting Trichomonas vaginalis [1]	identified as peptide target for C. albicans (C. albicans)	other results
QRTTIRRLRH [modified H2 peptide]	–	–	time to visible blue dye release (Candida albicans; collection of color in a feminine pad): approximately 3 hours
KNPKLQDHYI (Peptide Substrate of Trichomonas vaginalis) [44B5/T7, peptide detecting Trichomonas vaginalis]	detect Trichomonas vaginalis	–	–
LYPSQNPVIK (Peptide Substrate of Candida spp.) [peptide target for C. albicans]	–	peptide targets for C. albicans	–
NKTNKTKHAY (Peptide Substrate of Trichomonas vaginalis) [42H8/T7, peptide detecting Trichomonas vaginalis]	detect Trichomonas vaginalis	–	–
69/B8 (PFINETYAKFC; Peptide Substrate of Gardnerella vaginalis)	–	–	signal strength (GFP-peptide released from the beads) [2]: 62.8
SKQQDIIKKY (Peptide Substrate of Trichomonas vaginalis) [44E6/T7, peptide detecting Trichomonas vaginalis]	detect Trichomonas vaginalis	–	–
ASNAEAGALVNASSAAHVDV	–	–	cleavage site (HSV protein UL26): between the 12th amino acid (alanine) and the 13th amino acid (serine); specificity of UL26 for the sequence (HSV protein UL26): strong specificity
QIPKSLHPIT (Peptide Substrate of Trichomonas vaginalis) [42D3/T7, peptide detecting Trichomonas vaginalis]	detect Trichomonas vaginalis	–	–
QKTTIKKLKH (also: HRP or Blue dye #1 Affigel conjugate) [H2]	–	peptide targets for C. albicans	reaction with ten clinical C. albicans isolates (released HRP) [3]: reacted strongly; sensitivity [3]: 100%; clipping by other vaginal bacteria [4]: not significantly clipped; blue dye released from beads / peptide hydrolysis, color collected on membrane (Candida albicans; overnight grown Candida albicans, 24 hours at 37° C., no signal from control medium): highly visible blue color
KPKAFLKVGN (also: histidine tag) [R8, C. albicans peptide; used as H2N-…-OH with histidine tag for immobilization]	–	peptide targets for C. albicans	reaction with ten clinical C. albicans isolates (released HRP) [3]: reacted strongly; sensitivity [3]: 100%; clipping by other vaginal bacteria [4]: not significantly clipped
KPSIKPTPPY (Peptide Substrate of Candida spp.) [peptide target for C. albicans]	–	peptide targets for C. albicans	–
LHNYVLLRNIL (Peptide Substrate of Trichomonas vaginalis) [38H8/T7, peptide detecting Trichomonas vaginalis]	detect Trichomonas vaginalis	–	–
NITKKSTKII (Peptide Substrate of Candida spp.) [peptide target for C. albicans]	–	peptide targets for C. albicans	–
NNPLPKIQKN (Peptide Substrate of Trichomonas vaginalis) [38H9/T7, peptide detecting Trichomonas vaginalis]	detect Trichomonas vaginalis	–	–
76/C3 (ITTTSSKHEHC; Peptide Substrate of Lactobacillus acidophilus)	–	–	fluorescence after exposure to Gardnerella extracts (Gardnerella vaginalis): strong fluorescence
QINKALKQPK (Peptide Substrate of Trichomonas vaginalis) [41El 1/T7, peptide detecting Trichomonas vaginalis]	detect Trichomonas vaginalis	–	–
INLSKKQIYP (Peptide Substrate of Candida spp.) [peptide target for C. albicans]	–	peptide targets for C. albicans	–
